System: Echinochloa caudata Roshev.
Assay: Composition activity test, post-emergence foliage spray
Format: in vivo
Protocol: are as follows, and the others were purchased from reagent companies. The technical materials were all dissolved in acetone and diluted with an aqueous solution containing 0.1% emulsifier Tween-80. The dilution is performed as required.
Weeds were cultivated by a pot culture method. […] Full and uniform weed seeds were selected, soaked in warm water at 25° C. for 6 hours, and germinated in a 28° C. biochemical incubator (darkness). The weed seeds that had just germinated were evenly placed on the surface of the soil and then covered with 0.5-1 cm soil according to the sizes of seeds.
The culture was carried out in a controllable sunlight greenhouse at 20 to 30° C., in natural light, and relative humidity of 57% to 72%.
3 pots with 20 weed seeds per pot were treated in one treatment with 4 replications per treatment.
The agents were used for only once in the experiment. In the stage of weeds with 1.5-2 leaves, the weeds were thinned out to maintain 10 weeds per pot and 30 weeds for each treatment, then continued to be cultured to Conyza Canadensis 10 cm in height, other weeds 3-4 leaves stage and treated.
The well-cultured weeds were evenly placed on a platform with an area of 0.5 m^2, and a solution of agents was sprayed on the stems and leaves thereof by the 3WP-2000-type walking spray tower at a dosage of 450 kg/ha and at a spray pressure of 0.3 MPa. After all the solution was sprayed, the valve was closed. After 30 seconds, the door of the spray tower was opened, and the nutritional bowl was taken out. Then the valve was opened, and the spray tube was cleaned by spraying 50 ml of water. After the treatment, the weeds were routinely cultured in a greenhouse.
A method for investigating absolute number was employed, wherein whole seedlings of survival weeds were cut off with a blade along the soil surface, and the fresh weight of the weeds was weighed with an analytical balance. For dead weeds, the fresh weight thereof was zero.
The investigation was performed after 21 days of the treatment for only once.
An optimum ratio of the two active ingredients was determined by the actual control effect, characteristics of herbicides, and balance of a corresponding formula. Wherein, in the formula, X represented the fresh weight inhibition rate of the active ingredient A in a dosage of P, and Y represented the fresh weight inhibition rate of the active ingredient B in a dosage of Q. The statistical results were shown in the table 6.

SMILES | Control effect (%) of B applied alone (B) (B 15 g a.i./ha) [%] | other results
CS(=O)(=O)c1ccc(C(=O)C2C(=O)CCCC2=O)c(Cl)c1COCC(F)(F)F [tembotrione] | 31.7 | –
Cn1[nH]c(C2CC2)c(C(=O)c2ccc(C(F)(F)F)c(N3CCCCC3=O)c2Cl)c1=O [huanbifucaotong] | – | Control effect (%) of B applied alone (B) (B 60 g a.i./ha): 27.4%
CS(=O)(=O)c1cc(C(F)(F)F)ccc1C(=O)c1cnoc1C1CC1 [isoxaflutole] | 41.3 | –
CS(=O)(=O)c1ccc(C(=O)C2C(=O)CCCC2=O)c(Cl)c1COCC1CCCO1 (centres unmarked) [tefuryltrione] | – | Control effect (%) of B applied alone (B) (B 30 g a.i./ha): 21.5%
Cc1nn(C)cc1C(=O)Oc1c(C(=O)c2ccc(C(F)(F)F)cc2S(C)(=O)=O)c(C)nn1C [shuangzuocaotong] | 35.9 | –

Source: patent US20230111310A1, “CARBOXYLIC ACID DERIVATIVE-SUBSTITUTED IMINO ARYL COMPOUND, PREPARATION METHOD THEREFOR, HERBICIDAL COMPOSITION AND USE THEREOF” (Qingdao Kingagroot Chemical Compound Co., Ltd., priority 2020, published 2023)
